# Source: PubChem BioAssay AID1919003 (Molecular Pharmacology Branch, DTP, NCI, 2023)
# “And” between values parts separate entries of the source, which are not always exact repeats. Equal values may be shown once.
# Tested on: 786-0 complex spheroids with HUVEC/MSC, growth % test/control
# Assay: Anticancer human tumor 786-0 cell line growth inhibition [AhR];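 further: compound exposure lasted seven days before the read-out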
# Conditions: for viability, T/C: stronger effect = lower value
# Summary of the method: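 Spheroids combined tumor cells with HUVEC endothelial cells and human MSCs as stroma. AhR antagonists were paired with standard or investigational drugs, each dosed in half-log steps down from near clinical Cmax, or from 10 microM where Cmax was unknown.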
# [1] = curve of first compound, second compound 0.1 µM
# [2] = curve of first compound, second compound 0.316 µM
# [3] = curve of first compound, second compound 1 µM
# [4] = curve of first compound, second compound 3.16 µM
# [5] = curve of first compound, second compound 10 µM
compound,measurement,setting,value
CC(C)CC(NC(=O)C(Cc1ccccc1)NC(=O)c1cnccn1)B(O)O (configuration not stated) + Cc1ccccc1N=Nc1ccc(NC(=O)c2ccnn2C)c(C)c1,IC50,[1],0.0183 µM
same,IC50,[2],0.0179 µM
same,IC50,[3],0.0174 µM
same,IC50,[4],0.0176 µM
same,IC50,[5],0.0172 µM
same,"viability, T/C","second compound 0.1 µM, first compound 0.000949 µM",96.9%
same,"viability, T/C","second compound 0.1 µM, first compound 0.003 µM",103%
same,"viability, T/C","second compound 0.1 µM, first compound 0.00949 µM",103%
same,"viability, T/C","second compound 0.1 µM, first compound 0.03 µM",11.9%
same,"viability, T/C","second compound 0.1 µM, first compound 0.0949 µM",0.85%
same,"viability, T/C","second compound 0.1 µM, first compound 0.3 µM",0.51%
same,"viability, T/C","second compound 0.316 µM, first compound 0.000949 µM",103%
same,"viability, T/C","second compound 0.316 µM, first compound 0.003 µM",110%
same,"viability, T/C","second compound 0.316 µM, first compound 0.00949 µM",98.6%
same,"viability, T/C","second compound 0.316 µM, first compound 0.03 µM",10.4%
same,"viability, T/C","second compound 0.316 µM, first compound 0.0949 µM",4.46%
same,"viability, T/C","second compound 0.316 µM, first compound 0.3 µM",0.43%
same,"viability, T/C","second compound 1 µM, first compound 0.000949 µM",106%
same,"viability, T/C","second compound 1 µM, first compound 0.003 µM",107%
same,"viability, T/C","second compound 1 µM, first compound 0.00949 µM",92.4%
same,"viability, T/C","second compound 1 µM, first compound 0.03 µM",11.7%
same,"viability, T/C","second compound 1 µM, first compound 0.0949 µM",0.98%
same,"viability, T/C","second compound 1 µM, first compound 0.3 µM",2%
same,"viability, T/C","second compound 3.16 µM, first compound 0.000949 µM",98.9%
same,"viability, T/C","second compound 3.16 µM, first compound 0.003 µM",96.1%
same,"viability, T/C","second compound 3.16 µM, first compound 0.00949 µM",104%
same,"viability, T/C","second compound 3.16 µM, first compound 0.03 µM",7.1%
same,"viability, T/C","second compound 3.16 µM, first compound 0.0949 µM",0.92%
same,"viability, T/C","second compound 3.16 µM, first compound 0.3 µM",0.45%
same,"viability, T/C","second compound 10 µM, first compound 0.000949 µM",104%
same,"viability, T/C","second compound 10 µM, first compound 0.003 µM",106%
same,"viability, T/C","second compound 10 µM, first compound 0.00949 µM",80.3%
same,"viability, T/C","second compound 10 µM, first compound 0.03 µM",21.8%
same,"viability, T/C","second compound 10 µM, first compound 0.0949 µM",1.78%
same,"viability, T/C","second compound 10 µM, first compound 0.3 µM",1.25%
CC1COCCN1c1cc(C2(S(C)(=N)=O)CC2)nc(-c2ccnc3[nH]ccc23)n1 (configuration not stated),"viability, T/C",compound 0.0316 µM,110% and 102% and 98.7%
same,"viability, T/C",compound 0.1 µM,110% and 102% and 98.6%
same,"viability, T/C",compound 0.316 µM,96.8% and 101% and 93.2%
same,"viability, T/C",compound 1 µM,96.6% and 96.8% and 94%
same,"viability, T/C",compound 3.16 µM,64.5% and 88.2% and 47.7%
same,"viability, T/C",compound 10 µM,17.9% and 27.9% and 15.4%
same,IC50,curve of compound,4.62 µM and 6.58 µM and 2.99 µM
CC1COCCN1c1cc(C2(S(C)(=N)=O)CC2)nc(-c2ccnc3[nH]ccc23)n1 (configuration not stated) + CC(CO)NC(=O)c1cc(-c2ccc(Cl)cc2)nn(-c2cnn(C)c2)c1=O,IC50,[1],3.02 µM
same,IC50,[2],2.78 µM
same,IC50,[3],2.64 µM
same,IC50,[4],2.57 µM
same,IC50,[5],2.09 µM
same,"viability, T/C","second compound 0.1 µM, first compound 0.0316 µM",99.7%
same,"viability, T/C","second compound 0.1 µM, first compound 0.1 µM",99.5%
same,"viability, T/C","second compound 0.1 µM, first compound 0.316 µM",98.1%
same,"viability, T/C","second compound 0.1 µM, first compound 1 µM",99.4%
same,"viability, T/C","second compound 0.1 µM, first compound 3.16 µM",48%
same,"viability, T/C","second compound 0.1 µM, first compound 10 µM",15.7%
same,"viability, T/C","second compound 0.316 µM, first compound 0.0316 µM",101%
same,"viability, T/C","second compound 0.316 µM, first compound 0.1 µM",110%
same,"viability, T/C","second compound 0.316 µM, first compound 0.316 µM",96.2%
same,"viability, T/C","second compound 0.316 µM, first compound 1 µM",101%
same,"viability, T/C","second compound 0.316 µM, first compound 3.16 µM",43.6%
same,"viability, T/C","second compound 0.316 µM, first compound 10 µM",17.3%
same,"viability, T/C","second compound 1 µM, first compound 0.0316 µM",108%
same,"viability, T/C","second compound 1 µM, first compound 0.1 µM",102%
same,"viability, T/C","second compound 1 µM, first compound 0.316 µM",113%
same,"viability, T/C","second compound 1 µM, first compound 1 µM",97.4%
same,"viability, T/C","second compound 1 µM, first compound 3.16 µM",41.3%
same,"viability, T/C","second compound 1 µM, first compound 10 µM",13.7%
same,"viability, T/C","second compound 3.16 µM, first compound 0.0316 µM",108%
same,"viability, T/C","second compound 3.16 µM, first compound 0.1 µM",101%
same,"viability, T/C","second compound 3.16 µM, first compound 0.316 µM",118%
same,"viability, T/C","second compound 3.16 µM, first compound 1 µM",107%
same,"viability, T/C","second compound 3.16 µM, first compound 3.16 µM",37.5%
same,"viability, T/C","second compound 3.16 µM, first compound 10 µM",10.8%
same,"viability, T/C","second compound 10 µM, first compound 0.0316 µM",110%
same,"viability, T/C","second compound 10 µM, first compound 0.1 µM",118%
same,"viability, T/C","second compound 10 µM, first compound 0.316 µM",115%
same,"viability, T/C","second compound 10 µM, first compound 1 µM",93.6%
same,"viability, T/C","second compound 10 µM, first compound 3.16 µM",25.5%
same,"viability, T/C","second compound 10 µM, first compound 10 µM",8.6%
